# Assay results published in patent publication US20090131406A1 (BAYER CROPSCIENCE AG, priority 2005, published 2009).
# Like-named read-outs stand apart in the source and are kept apart here.
# Tests used:
# A375 cells = assay: LIVE/DEAD cytotoxicity assay, inhibition of cell proliferation; assay type: cell-based, human; settings: Homo sapiens, read-out: log GI50 values (M), A375 cells (converted)
# Method: (§1) The compounds of the general formula (I) according to the invention were tested for a possible cytotoxic or proliferation-inhibiting activity on the human tumour cell lines HeLa, SW620 and A375 (all from ATTC, American Type Culture Collection). To this end, the cells were plated in microtitre plates from Greiner (Manufacturer No. 781092) at a cell density of 1000 cells/microtitre plate well and cultivated in cell culture medium at 37° C. under a 5% carbon dioxide atmosphere. Cell culture media and additives were purchased from Invitrogen and the foetal calf serum from Biochrom. The cell culture media for Hela and A375 cells were used as stated by ATCC (HeLa: MEM, Order No. 10370-047, with 1% sodium bicarbonate, 1% non-essential amino acids, 1% sodium pyruvate, 10% foetal calf serum, 0.1% gentamycin; A375: DMEM, Order No. 41965-039, 2% sodium bicarbonate, 1% L-Glutamax, 10% foetal calf serum, 0.1% gentamycin). The culture medium for the SW620 cells consisted of DMEM, Order No. 41965-039, 1% non-essential amino acids, 10% foetal calf serum, 0.1% gentamycin.
# (§2) 24 hours after the cells had been plated in the microtitre plates, various concentrations of at most 100 μM down to a minimum concentration of 5 nM of the test compounds were added to the cells. Stock solutions of the test compounds (10 mM) were prepared in DMSO and stored at −20° C.; for the cytotoxicity tests, the test compounds were diluted in the appropriate cell culture medium.
# (§3) After a further 48 hours of incubation, the cells were washed with medium and analysed with the aid of a two-colour fluorescence cytotoxicity/viability test (LIVE/DEAD viability/cytotoxicity ASSAY kit from Molecular Probes, Order No. L-3224), according to the instructions of the manufacturer. To this end, the medium was aspirated and in each case 30 μl of LIVE/DEAD reagent per microtitre plate well were added to the cells, which were then incubated for 30 minutes. The cells were then washed with PBS (phosphate-buffered saline). The number of live cells was analysed by measuring the green fluorescence of the live dye calcein-AM as a component of the LIVE/DEAD reagent using a fluorescence plate reader (Flexstation, from Molecular Devices) at an excitation wavelength of 485 nm and an emission wavelength of 525 nm (cf. Oral, H. B. Endothelium 6, (1998), 143-151).
# (§4) Cells only with cell culture medium, without added test compounds, were treated in parallel and analysed as growth controls. The reference compounds used for anti-tumour agents having a cytotoxic or proliferation-inhibiting action were colchicine (from Merck/Calbiochem, Order No. 234115) and Taxol (baccatin III N-benzyl-b-phenylisoserine ester, from Merck/Calbiochem, Order No. 580555) (cf. Schiff, P. B. and Horwitz, S. B., Proceedings of the National Academy of Sciences of the U.S.A. 77, 1561-1565, 1980; Holmes, F. A. et al., Journal of the National Cancer Institute 83, 1797-1805, 1991).
# (§5) The cytotoxic effects of the test compounds were expressed as logarithmic GI50 values (growth-inhibiting logarithmic concentration value at which a cell growth reduced by 50% compared to the control without test compounds was measured (cf. Xia et al., Journal of Medicinal Chemistry 44, 3932-3936, 2001; Smith, J. A. et al., Gynecologic Oncology 98, 141-145, 2005)).
# SW620 cells = assay: as above; assay type: cell-based, human; settings: Homo sapiens, read-out: log GI50 values (M), SW620 cells (converted)
# Method: as §1, §2, §3, §4, §5
# HeLa cells = assay: as above; assay type: cell-based, human; settings: Homo sapiens, read-out: log GI50 values (M), HeLa cells (converted)
# Method: as §1
# 24 hours after the cells had been plated in the microtitre plates, various concentrations of at most 100 μM down to a minimum concentration of 5 nM of the test compounds were added to the cells. […]
# as §3, with “To this end, the medium was aspirated and in each case 30 μl of LIVE/DEAD reagent per microtitre plate well were added to the cells, which were then incubated for 30 minutes. The cells were then washed with PBS (phosphate-buffered saline).” left out
# Cells only with cell culture medium, without added test compounds, were treated in parallel and analysed as growth controls. […]
# [1] = logP determination by HPLC on a reversed-phase column (C 18) at pH 2.7; assay type: physicochemical; settings: for chromatographic logP: reversed-phase C18 HPLC column
# [2] = reversed-phase C 18, pH 2.7, preparation examples, read-out: logP (pH 2.7)
# [3] = reversed-phase C 18, pH 2.7, Table 2, starting materials of formula (VI), read-out: Physical data: logP values
# [4] = reversed-phase C 18, pH 2.7, Table 3, starting materials of formula (VII), read-out: logP (pH 2.7)
# [5] = reversed-phase C 18, pH 2.7, preparation examples
smiles,measurement,setting,value
"COc1cc2c(c(OC)c1OC)-c1ccc(OC)c(=O)cc1[C@@H](NC(C)=O)CC2 [Colchicine, colchicine]",GI50,"A375 cells; A-375, 48 h",2e-08 M
same,GI50,"SW620 cells; SW-620, 48 h",1.26e-08 M
same,GI50,HeLa cells; 48 h,1.58e-08 M
"CC1(C)O[C@@H]2C(=O)N3CCC(O)(C(=O)C[C@H]2O1)c1ccc(F)cc1C3 (stereo partly drawn) [Example I-2, (3aS,13aR)-8-Fluoro-11-hydroxy-2,2-dimethyl-6,11,13,13a-tetrahydro-4H-5,11-ethano[1,3]dioxolo[4,5-d][2]benzazecine-4,12(3aH)-dione]",chromatographic logP,[1]; [2],1.49
"CC1(C)O[C@@H]2C(=O)N3CCC(=CC[C@H]2O1)c1cnccc1C3 [Example Ia-3, (3aS,13aR)-2,2-Dimethyl-3a,6,13,13a-tetrahydro-4H-5,11-ethano[1,3]dioxolo[4,5-c]pyrido[3,4-h]azecin-4-one]",chromatographic logP,[1]; [2],0.49
"C=CCCN(Cc1cc(F)ccc1Br)C(=O)[C@H]1OC(C)(C)O[C@@H]1CC=C [VI-2, (4S,5R)-5-allyl-N-(2-bromo-5-fluorobenzyl)-N-but-3-en-1-yl-2,2-dimethyl-1,3-dioxolane-4-carboxamide]",chromatographic logP,[1]; [3],4.83
"O=C1CCCC=CCCN1Cc1cc2c(cc1Br)OCO2 [VII-5, 1-[(6-Bromo-1,3-Benzodioxol-5-yl)Methyl]-1,3,4,5,8,9-Hexahydro-2H-azonin-2-one]",chromatographic logP,[1]; [4],2.94
"CC1(C)O[C@@H]2C(=O)N3CCC(C(=O)C[C@H]2O1)c1cc2c(cc1C3)OCO2 (stereo partly drawn) [Example I-8, (3aS,14aR)-2,2-Dimethyl-6,12,14,14a-tetrahydro-4H-5,12-ethanobis[1,3]dioxolo[4,5-d:4′,5′-k][2]benzazecine-4,13(3aH)-dione]",chromatographic logP,[1]; [2],1.6
"C=CCCN(Cc1ccc(C)cc1Br)C(=O)[C@H]1OC(C)(C)O[C@@H]1CC=C [VI-1, (4S,5R)-5-Allyl-N-(2-bromo-4-methylbenzyl)-N-but-3-en-1-yl-2,2-dimethyl-1,3-dioxolane-4-carboxamide]",chromatographic logP,[1]; [3],5.27
"COc1cc(Br)c(CN2CCC=CCCCC2=O)cc1OC [VII-4, 1-(2-bromo-4,5-dimethoxybenzyl)-1,3,4,5,8,9-hexahydro-2H-azonin-2-one]",chromatographic logP,[1]; [4],2.78
"CC1(C)O[C@@H]2C(=O)N(Cc3ccncc3Br)CCC=CC[C@H]2O1 [VII-3, (3aS,10aR)-5-[(3-bromopyridin-4-yl)methyl]-2,2-dimethyl-3a,5,6,7,10,10a-hexahydro-4H-[1,3]dioxolo[4,5-c]azonin-4-one]",chromatographic logP,[1]; [4],1.96
O=C1C[C@@H](O)[C@H](O)C(=O)N2CCC1c1cc3c(cc1C2)OCO3 (some centres unmarked) [Example I-10],chromatographic logP,[1]; [2],0.89
"Cc1ccc2c(c1)C1=CC[C@H]3OC(C)(C)O[C@@H]3C(=O)N(CC1)C2 [Example Ia-1, (3aS,13aR)-2,2,9-Trimethyl-3a,6,13,13a-tetrahydro-4H-5,11-ethano[1,3]dioxolo[4,5-d][2]benzazecin-4-one]",chromatographic logP,[1]; [2],2.62
"O=C1CCCC(=O)C2(O)CCN1Cc1cc3c(cc12)OCO3 (centres unmarked) [Example I-3, 12-Hydroxy-9,10,12-trihydro-5H-6,12-ethano[1,3]dioxolo[4,5-k][2]benzazecine-7,11(8H)-dione]",chromatographic logP,[1]; [2],0.99
"CC1(C)O[C@@H]2C(=O)N3CCC(=CC[C@H]2O1)c1cc2c(cc1C3)OCO2 [Example Ia-6, (3aS,14aR)-2,2-Dimethyl-3a,6,14,14a-tetrahydro-4H-5,12-ethanobis[1,3]dioxolo[4,5-d:4′,5′-k][2]benzazecin-4-one]",chromatographic logP,[1]; [2],2.19
"CC1(C)O[C@@H]2C(=O)N3CCC(O)(C(=O)C[C@H]2O1)c1cc2c(cc1C3)OCO2 (stereo partly drawn) [Example I-4, (3aS,14aR)-12-hydroxy-2,2-dimethyl-6,12,14,14a-tetrahydro-4H-5,12-ethanobis[1,3]dioxolo[4,5-d:4′,5′-k][2]benzazecine-4,13(3aH)-dione]",chromatographic logP,[1]; [2],1.38
CC(=O)O[C@H]1C(=O)[C@@]2(C)[C@H]([C@H](OC(=O)c3ccccc3)[C@]3(O)C[C@H](OC(=O)[C@H](O)[C@@H](NC(=O)c4ccccc4)c4ccccc4)C(C)=C1C3(C)C)[C@]1(OC(C)=O)CO[C@@H]1C[C@@H]2O [Taxol],GI50,"A375 cells; A-375, 48 hours of incubation, calcein-AM fluorescence, cell growth reduced by 50% compared to control",1.26e-07 M
same,GI50,"SW620 cells; SW-620, 48 hours of incubation, calcein-AM fluorescence, cell growth reduced by 50% compared to control",1e-07 M
same,GI50,"HeLa cells; 48 hours of incubation, calcein-AM fluorescence, cell growth reduced by 50% compared to control",1e-07 M
"Cc1ccc2c(c1)C1(O)CCN(C2)C(=O)[C@H]2OC(C)(C)O[C@@H]2CC1=O (stereo partly drawn) [Example I-1, (3aS,13aR)-11-Hydroxy-2,2,9-trimethyl-6,11,13,13a-tetrahydro-4H-5,11-ethano[1,3]dioxolo[4,5-d][2]benzazecin-4,12(3aH)-one]",logP (pH 2.7),[1]; [5],1.61
"CC1(C)O[C@@H]2C(=O)N3CCC(=CC[C@H]2O1)c1ccc(F)cc1C3 [Example Ia-2, (3aS,13aR)-8-Fluoro-2,2-dimethyl-3a,6,13,13a-tetrahydro-4H-5,11-ethano[1,3]dioxolo[4,5-d][2]benzazecin-4-one]",chromatographic logP,[1]; [2],2.39
"Cc1ccc2c(c1)C1CCN(C2)C(=O)[C@@H](O)[C@H](O)CC1=O (stereo partly drawn) [Example I-9, (4S,5R)-4,5-Dihydroxy-10-methyl-5,6,8-trihydro-1H-2,8-ethano-2-benzazecine-3,7(4H)-dione]",chromatographic logP,[1]; [2],1.33
"O=C1CCCC=C2CCN1Cc1cc3c(cc12)OCO3 [Example Ia-5, 5,8,9,10-Tetrahydro-7H-6,12-ethano[1,3]dioxolo[4,5-k][2]benzazecin-7-one]",chromatographic logP,[1]; [2],2.01
"O=C1CCCC(=O)N2CCC1c1cc3c(cc1C2)OCO3 (centres unmarked) [Example I-7, 9,10,12-Trihydro-5H-6,12-ethano[1,3]dioxolo[4,5-k][2]benzazecine-7,11(8H)-dione]",chromatographic logP,[1]; [2],1.3
"Cc1ccc(CN2CCC=CC[C@H]3OC(C)(C)O[C@@H]3C2=O)c(Br)c1 [VII-1, (3aS,10aR)-5-(2-Bromo-4-methylbenzyl)-2,2-dimethyl-3a,5,6,7,10,10a-hexahydro-4H-[1,3]dioxolo[4,5-c]azonin-4-one]",chromatographic logP,[1]; [4],3.41
"CC1(C)O[C@@H]2C(=O)N(Cc3cc(F)ccc3Br)CCC=CC[C@H]2O1 [VII-2, (3aS,10aR)-5-(2-bromo-5-fluorobenzyl)-2,2-dimethyl-3a,5,6,7,10,10a-hexahydro-4H-[1,3]dioxolo[4,5-c]azonin-4-one]",chromatographic logP,[1]; [4],3.09
"Cc1ccc2c(c1)C1CCN(C2)C(=O)[C@H]2OC(C)(C)O[C@@H]2CC1=O (stereo partly drawn) [Example I-5, (3aS,13aR)-2,2,9-Trimethyl-6,11,13,13a-tetrahydro-4H-5,11-ethanol[1,3]dioxolo[4,5-d][2]benzazecine-4,12(3aH)-dione]",logP (pH 2.7),[1]; [5],1.92
"COc1cc2c(cc1OC)C1=CCCCC(=O)N(CC1)C2 [Example Ia-4, 10,11-Dimethoxy-1,4,5,6-tetrahydro-3H-2,8-ethano-2-benzazecin-3-one]",chromatographic logP,[1]; [2],1.82
"CC1(C)O[C@@H]2C(=O)N3CCC(C(=O)C[C@H]2O1)c1ccc(F)cc1C3 (stereo partly drawn) [Example I-6, (3aS,13aR)-8-Fluoro-2,2-dimethyl-6,11,13,13a-tetrahydro-4H-5,11-ethano[1,3]dioxolo[4,5-d][2]benzazecine-4,12(3aH)-dione]",chromatographic logP,[1]; [2],1.69
